# Measurements: US10670605B2, “Cysteine reactive probes and uses thereof” (The Scripps Research Institute, priority 2015, dated 2020)
# Assays:
# Test in all cases: Competitive isoTOP-ABPP, cell lysates
# Format in all cases: binding
# ACAT1 C413 (P24752) = target: T1, ACAT1 C413 (P24752) (Homo sapiens, UniProt P24752); conditions: for isoTOP-ABPP reactivity ratio, P24752_C413 / isoTOP-ABPP reactivity profile ratio, P24752_C413: 500 μm
# T1 sequence (P24752 34-427): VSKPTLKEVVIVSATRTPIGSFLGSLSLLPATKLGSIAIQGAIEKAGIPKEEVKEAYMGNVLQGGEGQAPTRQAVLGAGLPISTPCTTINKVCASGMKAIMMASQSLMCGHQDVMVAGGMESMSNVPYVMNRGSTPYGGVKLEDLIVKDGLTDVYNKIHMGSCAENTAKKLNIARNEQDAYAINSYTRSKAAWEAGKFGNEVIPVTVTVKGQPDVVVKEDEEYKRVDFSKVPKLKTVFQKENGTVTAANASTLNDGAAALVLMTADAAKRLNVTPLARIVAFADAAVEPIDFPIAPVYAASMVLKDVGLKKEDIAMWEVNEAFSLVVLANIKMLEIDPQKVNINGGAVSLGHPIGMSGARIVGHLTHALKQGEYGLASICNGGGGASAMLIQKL
# DDX59 C414 (Q5T1V6) = target: T2, DDX59 C414 (Q5T1V6) (Homo sapiens, UniProt Q5T1V6); conditions: 500 μm
# T2 sequence (Q5T1V6 1-619): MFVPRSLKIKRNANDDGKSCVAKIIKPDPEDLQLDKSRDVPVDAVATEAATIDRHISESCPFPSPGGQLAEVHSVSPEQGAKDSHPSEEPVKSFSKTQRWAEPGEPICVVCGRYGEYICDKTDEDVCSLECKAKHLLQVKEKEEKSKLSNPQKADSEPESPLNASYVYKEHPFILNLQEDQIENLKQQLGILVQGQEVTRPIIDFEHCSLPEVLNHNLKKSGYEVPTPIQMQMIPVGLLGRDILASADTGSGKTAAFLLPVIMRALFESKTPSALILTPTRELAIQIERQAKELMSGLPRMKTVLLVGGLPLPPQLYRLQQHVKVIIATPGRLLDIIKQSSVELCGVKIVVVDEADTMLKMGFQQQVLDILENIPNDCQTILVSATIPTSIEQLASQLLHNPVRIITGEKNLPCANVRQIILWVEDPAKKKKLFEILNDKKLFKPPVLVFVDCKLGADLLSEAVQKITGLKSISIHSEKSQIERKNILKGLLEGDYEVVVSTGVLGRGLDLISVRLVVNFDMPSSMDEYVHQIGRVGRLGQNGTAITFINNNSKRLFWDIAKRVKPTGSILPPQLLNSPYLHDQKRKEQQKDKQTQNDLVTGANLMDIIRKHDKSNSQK
# RRAGC C377 (Q9HB90) = RRAGC C377 (Q9HB90) (Homo sapiens, UniProt Q9HB90)
# Sequence of RRAGC C377 (Q9HB90) (Q9HB90 2-399 limits assumed): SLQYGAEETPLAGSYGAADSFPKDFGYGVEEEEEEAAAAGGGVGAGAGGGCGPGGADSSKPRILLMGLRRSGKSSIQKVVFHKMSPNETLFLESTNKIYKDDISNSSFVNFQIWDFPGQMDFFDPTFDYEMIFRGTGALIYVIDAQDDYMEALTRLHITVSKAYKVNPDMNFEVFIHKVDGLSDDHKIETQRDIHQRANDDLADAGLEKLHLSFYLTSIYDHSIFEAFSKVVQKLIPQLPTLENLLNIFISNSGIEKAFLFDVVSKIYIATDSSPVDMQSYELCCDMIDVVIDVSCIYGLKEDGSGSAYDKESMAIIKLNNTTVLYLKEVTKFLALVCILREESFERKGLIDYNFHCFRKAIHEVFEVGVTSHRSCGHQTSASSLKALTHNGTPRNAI
# Sequence of RRAGC C377 (Q9HB90) (Q7L523 whole entry partner): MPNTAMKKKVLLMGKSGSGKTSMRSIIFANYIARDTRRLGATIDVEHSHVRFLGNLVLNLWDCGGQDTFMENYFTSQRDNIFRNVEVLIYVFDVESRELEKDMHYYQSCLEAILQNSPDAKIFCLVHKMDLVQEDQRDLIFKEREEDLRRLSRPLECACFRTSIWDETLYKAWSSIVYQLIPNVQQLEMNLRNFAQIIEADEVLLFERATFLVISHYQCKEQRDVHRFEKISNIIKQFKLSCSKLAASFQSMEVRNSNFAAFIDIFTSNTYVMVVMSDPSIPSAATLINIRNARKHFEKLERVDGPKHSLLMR
# LRBA C2675 (P50851) = LRBA C2675 (P50851) (Homo sapiens, UniProt P50851); conditions: for isoTOP-ABPP reactivity ratio, P50851_C2675: 500 μm
# Sequence of LRBA C2675 (P50851) (P50851 whole entry): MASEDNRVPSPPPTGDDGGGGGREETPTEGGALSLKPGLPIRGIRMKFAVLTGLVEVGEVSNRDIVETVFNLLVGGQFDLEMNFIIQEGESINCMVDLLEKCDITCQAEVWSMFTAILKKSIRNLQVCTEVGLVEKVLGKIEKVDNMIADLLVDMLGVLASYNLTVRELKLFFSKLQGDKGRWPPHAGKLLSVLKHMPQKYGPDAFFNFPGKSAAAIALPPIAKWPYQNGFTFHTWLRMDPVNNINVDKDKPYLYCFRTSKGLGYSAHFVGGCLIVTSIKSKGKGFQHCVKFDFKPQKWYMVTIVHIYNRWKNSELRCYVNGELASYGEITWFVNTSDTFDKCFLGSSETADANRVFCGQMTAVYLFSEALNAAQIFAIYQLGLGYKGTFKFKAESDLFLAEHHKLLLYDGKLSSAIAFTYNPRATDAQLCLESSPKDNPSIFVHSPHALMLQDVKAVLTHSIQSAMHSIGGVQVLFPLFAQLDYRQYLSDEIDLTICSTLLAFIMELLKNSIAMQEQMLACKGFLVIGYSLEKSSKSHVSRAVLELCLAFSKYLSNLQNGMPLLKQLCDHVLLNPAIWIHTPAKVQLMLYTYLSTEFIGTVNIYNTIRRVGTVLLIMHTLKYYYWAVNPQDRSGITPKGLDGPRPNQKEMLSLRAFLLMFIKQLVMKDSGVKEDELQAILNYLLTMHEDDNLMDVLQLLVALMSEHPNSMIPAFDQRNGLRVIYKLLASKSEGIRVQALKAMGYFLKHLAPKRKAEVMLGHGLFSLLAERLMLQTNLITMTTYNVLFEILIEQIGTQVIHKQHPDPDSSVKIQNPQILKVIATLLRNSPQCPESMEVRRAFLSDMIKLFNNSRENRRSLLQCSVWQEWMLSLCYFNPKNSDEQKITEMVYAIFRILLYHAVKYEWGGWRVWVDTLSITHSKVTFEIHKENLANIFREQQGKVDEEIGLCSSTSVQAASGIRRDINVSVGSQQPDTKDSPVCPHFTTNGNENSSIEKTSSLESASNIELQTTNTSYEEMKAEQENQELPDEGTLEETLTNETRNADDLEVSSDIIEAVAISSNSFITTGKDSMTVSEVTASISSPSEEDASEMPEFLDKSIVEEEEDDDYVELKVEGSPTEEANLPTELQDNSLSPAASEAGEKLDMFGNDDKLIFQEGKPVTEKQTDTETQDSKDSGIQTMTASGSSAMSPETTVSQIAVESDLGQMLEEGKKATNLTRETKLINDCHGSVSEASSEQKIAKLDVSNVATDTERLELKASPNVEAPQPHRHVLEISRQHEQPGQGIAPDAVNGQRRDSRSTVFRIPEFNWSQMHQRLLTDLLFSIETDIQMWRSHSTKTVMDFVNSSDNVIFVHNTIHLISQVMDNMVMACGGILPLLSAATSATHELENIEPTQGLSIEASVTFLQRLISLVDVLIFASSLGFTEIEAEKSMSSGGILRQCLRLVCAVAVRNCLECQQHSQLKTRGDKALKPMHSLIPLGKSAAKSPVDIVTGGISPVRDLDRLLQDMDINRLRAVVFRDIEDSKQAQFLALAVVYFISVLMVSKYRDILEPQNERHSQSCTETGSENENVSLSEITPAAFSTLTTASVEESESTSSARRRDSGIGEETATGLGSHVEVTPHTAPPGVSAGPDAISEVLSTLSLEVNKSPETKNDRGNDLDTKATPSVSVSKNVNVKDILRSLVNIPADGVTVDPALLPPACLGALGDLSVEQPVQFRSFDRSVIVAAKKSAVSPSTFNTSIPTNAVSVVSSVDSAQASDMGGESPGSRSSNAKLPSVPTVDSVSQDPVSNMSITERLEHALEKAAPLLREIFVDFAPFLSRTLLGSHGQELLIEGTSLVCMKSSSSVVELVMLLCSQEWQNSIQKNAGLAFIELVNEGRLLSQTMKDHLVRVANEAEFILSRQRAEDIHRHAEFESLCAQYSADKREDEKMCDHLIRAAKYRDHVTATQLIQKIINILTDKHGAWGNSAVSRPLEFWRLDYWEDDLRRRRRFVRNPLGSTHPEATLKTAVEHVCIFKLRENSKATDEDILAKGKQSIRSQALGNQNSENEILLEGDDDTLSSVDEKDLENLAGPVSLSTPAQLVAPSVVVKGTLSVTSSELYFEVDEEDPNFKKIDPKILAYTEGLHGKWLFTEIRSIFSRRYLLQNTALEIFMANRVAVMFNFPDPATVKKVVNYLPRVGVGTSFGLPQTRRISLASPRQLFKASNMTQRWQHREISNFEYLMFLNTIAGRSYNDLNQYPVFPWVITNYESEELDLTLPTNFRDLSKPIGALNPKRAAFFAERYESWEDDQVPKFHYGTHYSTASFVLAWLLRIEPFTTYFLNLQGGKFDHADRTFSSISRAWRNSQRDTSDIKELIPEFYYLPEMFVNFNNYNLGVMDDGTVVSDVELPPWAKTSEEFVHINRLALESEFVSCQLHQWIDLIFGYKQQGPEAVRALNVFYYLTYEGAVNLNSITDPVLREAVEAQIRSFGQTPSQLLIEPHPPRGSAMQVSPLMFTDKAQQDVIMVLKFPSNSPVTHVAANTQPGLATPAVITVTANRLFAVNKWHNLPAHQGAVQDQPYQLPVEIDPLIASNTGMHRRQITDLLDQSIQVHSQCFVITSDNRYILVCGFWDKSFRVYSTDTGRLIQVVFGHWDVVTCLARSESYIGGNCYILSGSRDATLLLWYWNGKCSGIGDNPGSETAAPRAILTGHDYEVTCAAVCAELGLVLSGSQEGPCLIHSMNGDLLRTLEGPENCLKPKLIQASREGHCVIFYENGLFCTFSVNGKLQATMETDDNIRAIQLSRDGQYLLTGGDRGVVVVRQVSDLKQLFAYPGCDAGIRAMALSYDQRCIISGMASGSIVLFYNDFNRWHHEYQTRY
# LRBA C1704 (P50851) = LRBA C1704 (P50851) (Homo sapiens, UniProt P50851); conditions: 500 μm, in-vitro_ramos
# Sequence of LRBA C1704 (P50851) (P50851 whole entry): as above
# PFKFB4 C159 (Q16877) = PFKFB4 C159 (Q16877) (Homo sapiens, UniProt Q16877); conditions: 500 μm, in-vitro_ramos
# Sequence of PFKFB4 C159 (Q16877) (Q16877 whole entry): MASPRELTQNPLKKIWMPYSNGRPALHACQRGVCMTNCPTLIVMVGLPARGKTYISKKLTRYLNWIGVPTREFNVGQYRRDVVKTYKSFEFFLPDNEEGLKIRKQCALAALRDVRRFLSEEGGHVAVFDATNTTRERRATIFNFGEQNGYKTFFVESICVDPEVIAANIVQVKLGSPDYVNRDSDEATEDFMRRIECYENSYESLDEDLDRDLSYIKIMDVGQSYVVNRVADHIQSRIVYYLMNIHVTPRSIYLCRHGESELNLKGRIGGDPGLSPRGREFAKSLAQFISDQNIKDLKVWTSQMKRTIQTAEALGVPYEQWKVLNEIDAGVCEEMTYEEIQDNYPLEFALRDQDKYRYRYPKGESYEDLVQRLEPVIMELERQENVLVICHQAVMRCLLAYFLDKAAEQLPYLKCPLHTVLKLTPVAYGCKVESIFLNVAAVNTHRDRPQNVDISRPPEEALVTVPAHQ
# USP16 C205 (Q9Y5T5) = USP16 C205 (Q9Y5T5) (Homo sapiens, UniProt Q9Y5T5); conditions: 500 μm
# Sequence of USP16 C205 (Q9Y5T5) (Q9Y5T5 whole entry): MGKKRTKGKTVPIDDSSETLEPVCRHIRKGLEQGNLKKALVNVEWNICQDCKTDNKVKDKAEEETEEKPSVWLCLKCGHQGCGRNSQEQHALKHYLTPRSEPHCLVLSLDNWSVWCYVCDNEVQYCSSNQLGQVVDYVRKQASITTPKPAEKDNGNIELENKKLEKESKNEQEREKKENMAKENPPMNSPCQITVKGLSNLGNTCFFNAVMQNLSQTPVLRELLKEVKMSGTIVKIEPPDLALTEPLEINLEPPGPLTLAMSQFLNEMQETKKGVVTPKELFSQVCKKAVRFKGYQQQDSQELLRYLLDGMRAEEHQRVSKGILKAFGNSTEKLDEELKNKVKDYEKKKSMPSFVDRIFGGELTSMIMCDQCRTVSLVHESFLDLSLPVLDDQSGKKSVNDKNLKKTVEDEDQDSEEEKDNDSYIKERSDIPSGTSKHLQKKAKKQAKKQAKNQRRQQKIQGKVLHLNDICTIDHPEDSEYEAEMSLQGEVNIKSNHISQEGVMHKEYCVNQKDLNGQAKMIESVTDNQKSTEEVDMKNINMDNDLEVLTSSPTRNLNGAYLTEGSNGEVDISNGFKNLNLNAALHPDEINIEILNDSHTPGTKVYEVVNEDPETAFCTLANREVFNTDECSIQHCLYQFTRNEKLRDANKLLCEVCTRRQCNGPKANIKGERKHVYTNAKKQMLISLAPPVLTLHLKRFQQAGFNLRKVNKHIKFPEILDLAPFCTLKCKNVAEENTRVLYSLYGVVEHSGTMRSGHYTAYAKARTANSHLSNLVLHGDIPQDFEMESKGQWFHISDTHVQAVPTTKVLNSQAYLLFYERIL
"isoTOP-ABPP reactivity ratio, P24752_C413 (ACAT1 C413 (P24752); in-vitro_ramos)","isoTOP-ABPP reactivity ratio, Q5T1V6_C414 (DDX59 C414 (Q5T1V6); in-vitro_ramos)","isoTOP-ABPP reactivity ratio, P24752_C413 (ACAT1 C413 (P24752); in-vitro_ramos_231)","isoTOP-ABPP reactivity ratio, P50851_C1704 (LRBA C1704 (P50851))","isoTOP-ABPP reactivity profile ratio, P24752_C413 (ACAT1 C413 (P24752); in-vitro_ramos_231)",Compound,also measured
1.3,,0.9,,,O=C(CCl)N(Cc1ccc(F)cc1)C12CC3CC(CC(C3)C1)C2 [compound 34],"isoTOP-ABPP reactivity ratio, Q5T1V6_C414 (DDX59 C414 (Q5T1V6); in-vitro_ramos_231): 0.6; isoTOP-ABPP reactivity ratio, Q16877_C159 (PFKFB4 C159 (Q16877)): 1.4; isoTOP-ABPP reactivity ratio, P50851_C2675 (LRBA C2675 (P50851); in-vitro_ramos): 1.1"
1.3,1.3,,1.1,,O=C(CCl)Nc1ccccc1C1CCCCCC1 [compound 35],"isoTOP-ABPP reactivity ratio, P50851_C2675 (LRBA C2675 (P50851); in-vitro_ramos): 1.0"
0.9,1.0,,1.0,,C=CC(=O)N1CCC(c2noc3ccc(F)cc23)CC1 [compound 37],"isoTOP-ABPP reactivity ratio, P50851_C2675 (LRBA C2675 (P50851); in-vitro_ramos): 1.0"
20.0,1.8,1.1,2.5,,C=CC(=O)Nc1cc(F)c(N2CCN(C(=O)OC(C)(C)C)CC2)c(F)c1 [compound 38],"isoTOP-ABPP reactivity ratio, Q9Y5T5_C205 (USP16 C205 (Q9Y5T5); in-vitro_ramos): 1.9; isoTOP-ABPP reactivity ratio, Q5T1V6_C414 (DDX59 C414 (Q5T1V6); in-vitro_ramos_231): 0.9; isoTOP-ABPP reactivity ratio, Q9HB90_C377 (RRAGC C377 (Q9HB90); 500 μm, in-vitro_ramos_231): 1.0"
0.9,1.0,0.8,,,Cc1ccc(C=C(C#N)C(=O)NCCN2CCOCC2)cc1 [compound 41],"isoTOP-ABPP reactivity ratio, Q9Y5T5_C205 (USP16 C205 (Q9Y5T5); in-vitro_ramos_231): 0.8; isoTOP-ABPP reactivity ratio, Q5T1V6_C414 (DDX59 C414 (Q5T1V6); in-vitro_ramos_231): 1.2; isoTOP-ABPP reactivity ratio, Q9HB90_C377 (RRAGC C377 (Q9HB90); 500 μm, in-vitro_ramos_231): 1.1; isoTOP-ABPP reactivity ratio, P50851_C2675 (LRBA C2675 (P50851); in-vitro_ramos_231): 1.9"
,,,,15.9,COc1cc(NC(=O)CCl)cc(OC)c1 [compound 43],
,,,,1.9,O=C(CCl)Nc1ccc(-c2ccccc2)cc1 [compound 52],"isoTOP-ABPP reactivity profile ratio, P24752_C413 (ACAT1 C413 (P24752); in-vitro_ramos): 1.5; isoTOP-ABPP reactivity profile ratio, P50851_C1704 (LRBA C1704 (P50851)): 1.1"

# Second part, the compound before the results:
Compound,"isoTOP-ABPP reactivity ratio, P24752_C413 (ACAT1 C413 (P24752); in-vitro_ramos)","isoTOP-ABPP reactivity ratio, Q5T1V6_C414 (DDX59 C414 (Q5T1V6); in-vitro_ramos)","isoTOP-ABPP reactivity ratio, P24752_C413 (ACAT1 C413 (P24752); in-vitro_ramos_231)","isoTOP-ABPP reactivity ratio, P50851_C1704 (LRBA C1704 (P50851))","isoTOP-ABPP reactivity profile ratio, P24752_C413 (ACAT1 C413 (P24752); in-vitro_ramos_231)",also measured
CCN(CC)c1ccc(S(N)(=O)=O)cc1NC(=O)CCl [compound 30],1.9,2.0,,,,"isoTOP-ABPP ratio (reactivity profile), P24752_C413 (ACAT1 C413 (P24752); 500 μm in-vitro ramos): 1.1; isoTOP-ABPP ratio (reactivity profile), Q9HB90_C377 (RRAGC C377 (Q9HB90); 500 μm in-vitro ramos): 1.4; isoTOP-ABPP ratio (reactivity profile), P50851_C2675 (LRBA C2675 (P50851); 500 μm in-vitro ramos): 0.9"
C=CC(=O)N(Cc1cccnc1)c1cc(C(F)(F)F)cc(C(F)(F)F)c1 [compound 31],1.0,,1.6,1.4,,"isoTOP-ABPP reactivity ratio, Q9HB90_C377 (RRAGC C377 (Q9HB90); 500 μm, in-vitro_ramos_231): 2.2"
CC(C)(C)c1cc(NC(=O)CCl)on1 [compound 32],4.1,,6.8,2.0,,"isoTOP-ABPP reactivity ratio, Q16877_C159 (PFKFB4 C159 (Q16877)): 1.5; isoTOP-ABPP reactivity ratio, Q9HB90_C377 (RRAGC C377 (Q9HB90); 500 μm, in-vitro_ramos): 1.5; isoTOP-ABPP reactivity ratio, P50851_C2675 (LRBA C2675 (P50851); in-vitro_ramos): 1.1; isoTOP-ABPP reactivity ratio, P50851_C2675 (LRBA C2675 (P50851); in-vitro_ramos_231): 1.8"
C=CC(=O)Nc1cc(C)c(Br)cc1C [compound 40],,1.4,0.9,,,"isoTOP-ABPP reactivity ratio, Q9Y5T5_C205 (USP16 C205 (Q9Y5T5); in-vitro_ramos): 0.9; isoTOP-ABPP reactivity ratio, Q16877_C159 (PFKFB4 C159 (Q16877)): 1.2"
N#CC(=Cc1ccc(-c2ccccc2Cl)o1)C(N)=O [compound 42],,,,,,"isoTOP-ABPP reactivity profile ratio, P24752_C413 (ACAT1 C413 (P24752); in-vitro_ramos): 0.7; isoTOP-ABPP reactivity profile ratio, Q9Y5T5_C205 (USP16 C205 (Q9Y5T5); in-vitro_ramos): 1.5"
CC1CCc2ccccc2N1C(=O)CCl (stereo not shown) [compound 45],,,,,20.0,
C=CC(=O)N(c1ccccc1)C1CCCCC1 [compound 46],,,,,1.1,"isoTOP-ABPP reactivity profile ratio, Q9Y5T5_C205 (USP16 C205 (Q9Y5T5); in-vitro_ramos_231): 1.0"
O=C(CCl)N1CCc2cc(Br)ccc21 [compound 50],,,,,9.2,
C=CC(=O)N1CCC(Cc2ccccc2)CC1 [compound 53],,,,,1.0,"isoTOP-ABPP reactivity profile ratio, Q9Y5T5_C205 (USP16 C205 (Q9Y5T5); in-vitro_ramos_231): 1.1; isoTOP-ABPP reactivity profile ratio, Q5T1V6_C414 (DDX59 C414 (Q5T1V6); in-vitro_ramos_231): 0.8; isoTOP-ABPP reactivity profile ratio, Q9HB90_C377 (RRAGC C377 (Q9HB90); 500 μm, in-vitro_ramos): 1.1"
